Measurements: ChEMBL document CHEMBL3508693 (2016)

Columns and labels:
[1] = % SPP100 in urine and faeces following single oral dose of 300 mg [14C]SPP100 studied in healthy men; type: ADME, organism-based, Urine/Feces; conditions: human, in vivo, at 300 mg
[2] = %Unchanged aliskiren in urine following 10 day repeated oral administration of [14C] aliskiren hemifumarate at 100 mg.Kg-1 level studied in rat; type: ADME, organism-based, Albino HAN:WIST; conditions: in vivo, 240 h
[3] = Excretion (0-168h) of aliskiren in urine following intravenous administration of [14C] aliskiren hemifumarate at 1 mg.Kg-1 level in marmoset; type: ADME, organism-based, Callithrix jacchus; conditions: in vivo
[4] = % of radioactivity recovered as aliskiren in faeces following intravenous administration of [14C] aliskiren hemifumarate at 10 mg.Kg-1 level in rat; type: ADME, organism-based, Albino HAN:WIST, Feces; conditions: in vivo
CYP2C19 = CYP2C19 (Homo sapiens, UniProt P33261); test: Inhibitory activity of 200 uM SPP100 on 1375 Pmoles of cDNA-derived CYP2C19 enzyme in microsome prepared from human lymphoblastoid cell line; type: ADME, microsomes; set-up: conc 200 uM, interact cpd conc 50 uM; conditions: probe (S)-mephenytoin (50 uM)
[5] = Concentration of radioactivity in the kidney medulla following repeated oral administration of [14C] aliskiren hemifumarate at 100 mg.Kg-1 level studied at 2h after 3rd dose in rat; type: ADME, organism-based, Albino HAN:WIST, Renal medulla; conditions: in vivo
[6] = Excretion of radioactivity (24-48h) in urine following single oral dose of 100 mg.Kg-1 [14C] aliskiren hemifumarate in rat; type: ADME, organism-based, Albino HAN:WIST; conditions: in vivo
[7] = Tmax of radioactivity following repeated oral administration of [14C] aliskiren hemifumarate at 100 mg.Kg-1 level studied after 2h of dosing on day 1 in rat; type: ADME, organism-based, Albino HAN:WIST; conditions: in vivo
[8] = Mean excretion of radioactivity (0-96h) in urine and faeces following single intravenous dose of 10 mg.Kg-1 [14C] aliskiren hemifumarate in rat; type: ADME, organism-based, Albino HAN:WIST, Urine/Feces; conditions: in vivo
[9] = Mean excretion of radioactivity (0-96h) in urine and faeces following single oral dose of 100 mg.Kg-1 [14C] aliskiren hemifumarate in rat; type: ADME, organism-based, Albino HAN:WIST, Urine/Feces; conditions: in vivo
[10] = Excretion (0-24h) of radioactivity in faeces following intravenous administration of [14C] aliskiren hemifumarate at 1 mg.Kg-1 level in marmoset; type: ADME, organism-based, Callithrix jacchus, Feces; conditions: in vivo
[11] = Concentration of radioactivity in carcass following intravenous administration of [14C] aliskiren hemifumarate at 10 mg.Kg-1 level measured on day 7 in rat; type: ADME, organism-based, Lister-Hooded; conditions: in vivo
[12] = Mean excretion of radioactivity (72-96h) in urine and faeces following single oral dose of 100 mg.Kg-1 [14C] aliskiren hemifumarate in rat; type: ADME, organism-based, Albino HAN:WIST, Urine/Feces; conditions: in vivo
[13] = Excretion (24h) of radioactivity in faeces following oral administration of [14C] aliskiren hemifumarate at 100 mg.Kg-1 level in rat; type: ADME, organism-based, Lister-Hooded, Feces; conditions: in vivo
[14] = Excretion (0-24h) of radioactivity in urine following intravenous administration of [14C] aliskiren hemifumarate at 1 mg.Kg-1 level in marmoset; type: ADME, organism-based, Callithrix jacchus; conditions: in vivo
Cytochrome P450 3A4/3A5 = Cytochrome P450 3A4/3A5 (Homo sapiens, UniProt P08684+P20815); test: Estimated contribution of CYP3A4/5 to oxidative metabolism of [14C] aliskiren hemifumarate based on studies with microsomes from baculovirus-infected insect cells expressing recombinant human CYP450s and studies with pooled human liver microsomes from 22 donors; type: ADME, Microsome
[15] = Excretion of radioactivity (24-48h) in urine following single oral dose of 500 mg.Kg-1 [14C] aliskiren hemifumarate in mouse; type: ADME, organism-based, TgRasH2; conditions: in vivo
[16] = Tmax (0-168h) of total radioactivity following single oral administration of [14C] aliskiren hemifumarate at 3 mg.Kg-1 level in marmoset; type: ADME, organism-based, Callithrix jacchus, Plasma; conditions: in vivo
[17] = t1/2 of aliskiren hemifumarate following 2 week oral dosing of aliskiren hemifumarate at 50 mg.Kg-1 level studied on day 14 in female Callithrix jacchus; type: ADME, organism-based; conditions: marmoset, plasma
[18] = Tmax of aliskiren hemifumarate following single dosing of SPP100B oral solution at 80 mg level studied on day 1 in men; type: ADME, organism-based; conditions: male, human, plasma
[19] = Tmax of unlabeled aliskiren hemifumarate following single oral dose of aliskiren hemifumarate at 500 mg.Kg-1 level in mouse; type: ADME, organism-based; conditions: TgRasH2, mouse, plasma
[20] = AUC (0-24h)/dose of aliskiren hemifumarate following 4 week oral dietary dosing of aliskiren hemifumarate at 500 mg.Kg-1 level in male mouse; type: ADME, organism-based, CB6F1-TGrasH2, Plasma; conditions: in vivo
[21] = Effect of 2 week oral dosing of aliskiren hemifumarate at 10 mg.Kg-1 level on blood urea nitrogen level in male Callithrix jacchus; type: toxicity, organism-based, Plasma; conditions: marmoset, 336 h
[22] = Tmax of aliskiren hemifumarate following 2 week oral dosing of aliskiren hemifumarate at 10 mg.Kg-1 level studied on day 14 in female Callithrix jacchus; type: ADME, organism-based; conditions: marmoset, plasma
[23] = Cmax of aliskiren hemifumarate following 2 week oral dosing of aliskiren hemifumarate at 100 mg.Kg-1 level studied on day 14 in male Callithrix jacchus; type: ADME, organism-based; conditions: marmoset, plasma
[24] = Tmax of aliskiren hemifumarate following 2 week oral dosing of aliskiren hemifumarate at 100 mg.Kg-1 level studied on day 1 in female Callithrix jacchus; type: ADME, organism-based; conditions: marmoset, plasma
[25] = AUC(0-24h) of aliskiren hemifumarate following 2 week oral dosing of aliskiren hemifumarate at 50 mg.Kg-1 level studied on day 14 in female Callithrix jacchus; type: ADME, organism-based; conditions: marmoset, plasma
[26] = Tmax of aliskiren hemifumarate following 2 week oral dosing of aliskiren hemifumarate at 10 mg.Kg-1 level studied on day 1 in female Callithrix jacchus; type: ADME, organism-based; conditions: marmoset, plasma
[27] = Cmax of aliskiren hemifumarate following repeated oral administration of [14C] aliskiren hemifumarate at 100 mg.Kg-1 level studied after 2h of dosing on day 10 in rat; type: ADME, organism-based, Albino HAN:WIST; conditions: in vivo, read-out: Cmax(10)
[28] = Tmax of aliskiren hemifumarate following 4 week oral dietary dosing of aliskiren hemifumarate at 500 mg.Kg-1 level in female mouse; type: ADME, organism-based; conditions: CB6F1-TGrasH2, mouse, in vivo
[29] = AUC(0-24h) of aliskiren hemifumarate following 2 week oral dosing of aliskiren hemifumarate at 10 mg.Kg-1 level studied on day 1 in female Callithrix jacchus; type: ADME, organism-based; conditions: marmoset, plasma
[30] = AUC(0-24)/dose of aliskiren hemifumarate following repeated oral administration of [14C] aliskiren hemifumarate at 100 mg.Kg-1 level studied in rat; type: ADME, organism-based, Albino HAN:WIST, Plasma; conditions: in vivo
[31] = Effect of 2 week oral dosing of aliskiren hemifumarate at 100 mg.Kg-1 level on hematological parameter values in male Callithrix jacchus; type: toxicity, organism-based, Plasma; conditions: marmoset, in vivo, 336 h
[32] = Cmax (0-96h) of unlabeled aliskiren hemifumarate following oral administration of aliskiren hemifumarate at 100 mg.Kg-1 level in rat; type: ADME, organism-based; conditions: Albino HAN:WIST, plasma
[33] = AUC infinity of aliskiren hemifumarate following 2 week oral dosing of aliskiren hemifumarate at 100 mg.Kg-1 level studied on day 1 in male Callithrix jacchus; type: ADME, organism-based; conditions: marmoset, plasma, read-out: AUC infinity
[34] = Effect of 2 week oral dosing of aliskiren hemifumarate at 100 mg.Kg-1 level on blood urea nitrogen level in female Callithrix jacchus; type: toxicity, organism-based, Plasma; conditions: marmoset, 336 h
hERG (KCNH2) = hERG (KCNH2) (Homo sapiens, UniProt Q12809); test: Effects of 1000 uM aliskiren hemifumarate on current through cloned hERG channel expressed in human embryonic kidney cell; type: cell-based; set-up: conc 1000 uM, dose level High; conditions: HEK293 cells that express cloned hERG channel, read-out: Inhibitory activity
[35] = AUCspec of aliskiren hemifumarate following 2 week oral dosing of aliskiren hemifumarate at 50 mg.Kg-1 level studied on day 14 in male Callithrix jacchus; type: ADME, organism-based, Plasma; conditions: marmoset, in vivo, 336 h

Sequence of CYP2C19 (P33261 whole entry): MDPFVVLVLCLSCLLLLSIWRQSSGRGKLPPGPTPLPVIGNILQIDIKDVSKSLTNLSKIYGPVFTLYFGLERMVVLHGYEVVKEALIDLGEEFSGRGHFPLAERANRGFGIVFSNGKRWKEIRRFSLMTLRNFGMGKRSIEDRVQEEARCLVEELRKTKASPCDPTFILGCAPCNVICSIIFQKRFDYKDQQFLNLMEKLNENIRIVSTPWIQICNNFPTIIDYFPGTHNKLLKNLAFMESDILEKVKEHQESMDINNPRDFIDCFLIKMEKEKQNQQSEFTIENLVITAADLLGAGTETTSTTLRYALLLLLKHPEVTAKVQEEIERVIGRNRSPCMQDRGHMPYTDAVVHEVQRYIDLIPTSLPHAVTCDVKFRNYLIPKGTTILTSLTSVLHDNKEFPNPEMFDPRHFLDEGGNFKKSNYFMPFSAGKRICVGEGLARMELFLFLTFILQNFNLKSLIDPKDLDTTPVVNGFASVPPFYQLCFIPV
Sequence of hERG (KCNH2) (Q12809 whole entry): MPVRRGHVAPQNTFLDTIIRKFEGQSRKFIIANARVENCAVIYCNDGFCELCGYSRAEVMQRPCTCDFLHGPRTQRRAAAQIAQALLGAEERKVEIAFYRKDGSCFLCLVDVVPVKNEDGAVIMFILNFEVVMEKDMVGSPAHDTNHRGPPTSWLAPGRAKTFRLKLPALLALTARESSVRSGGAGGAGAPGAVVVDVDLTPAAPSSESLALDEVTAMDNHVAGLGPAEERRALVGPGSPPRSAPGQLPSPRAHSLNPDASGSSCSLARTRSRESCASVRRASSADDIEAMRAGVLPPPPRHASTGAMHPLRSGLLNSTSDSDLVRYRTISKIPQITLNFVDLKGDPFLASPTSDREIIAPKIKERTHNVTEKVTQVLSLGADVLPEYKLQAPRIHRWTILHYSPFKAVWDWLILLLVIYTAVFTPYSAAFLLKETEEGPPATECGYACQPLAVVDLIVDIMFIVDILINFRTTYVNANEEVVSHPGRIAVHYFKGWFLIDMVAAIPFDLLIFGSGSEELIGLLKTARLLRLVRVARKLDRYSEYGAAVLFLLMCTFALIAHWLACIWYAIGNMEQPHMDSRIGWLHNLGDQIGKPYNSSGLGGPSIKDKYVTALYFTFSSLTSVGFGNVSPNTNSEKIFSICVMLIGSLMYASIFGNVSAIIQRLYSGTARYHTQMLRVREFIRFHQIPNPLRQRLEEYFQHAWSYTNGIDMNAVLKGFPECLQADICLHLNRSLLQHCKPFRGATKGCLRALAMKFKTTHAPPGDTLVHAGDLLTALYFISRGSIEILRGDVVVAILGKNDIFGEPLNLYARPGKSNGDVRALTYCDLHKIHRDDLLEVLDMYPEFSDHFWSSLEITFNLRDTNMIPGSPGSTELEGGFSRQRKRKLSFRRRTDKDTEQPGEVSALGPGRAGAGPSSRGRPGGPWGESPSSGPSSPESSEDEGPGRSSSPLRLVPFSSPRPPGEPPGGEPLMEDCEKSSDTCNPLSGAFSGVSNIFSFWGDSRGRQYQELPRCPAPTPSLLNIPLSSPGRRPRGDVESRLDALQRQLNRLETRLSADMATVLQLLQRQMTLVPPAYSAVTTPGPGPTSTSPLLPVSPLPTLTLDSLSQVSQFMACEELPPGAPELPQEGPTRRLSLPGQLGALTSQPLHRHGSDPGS

## COCCCOc1cc(C[C@@H](C[C@H](N)[C@@H](O)C[C@H](C(=O)NCC(C)(C)C(N)=O)C(C)C)C(C)C)ccc1OC
[1]
  Compound recovery: 79.8%
[2]
  Compound recovery: 43%
[3]
  Compound recovery: 3%
[4]
  Compound recovery: > 40%
CYP2C19
  inhibition at 200 µM: -15.4%

## COCCCOc1cc(C[C@@H](C[C@H](N)[C@@H](O)C[C@H](C(=O)NCC([14CH3])([14CH3])C(N)=O)C(C)C)C(C)C)ccc1OC.O=C(O)/C=C/C(=O)O
[5]
  Radiolabel recovery: OUTCOME = Detected
[6]
  Radiolabel recovery: 0.17%
[7]
  Tmax(1): 2 h
[8]
  Radiolabel recovery: 94.8%
[9]
  Radiolabel recovery: 95.1%
[10]
  Radiolabel recovery: 51.5%
[11]
  Radiolabel recovery: OUTCOME = Observed, VALUE = residues of radioactivity remained in the carcass at 7 days after dosing
[12]
  Radiolabel recovery: 2.54%
[13]
  Radiolabel recovery: 86%
[14]
  Radiolabel recovery: 0.61%
Cytochrome P450 3A4/3A5
  Activity: 99.6%
[15]
  Radiolabel recovery: 1.02%
[16]
  Tmax: 2 h

## COCCCOc1cc(C[C@@H](C[C@H](N)[C@@H](O)C[C@H](C(=O)NCC(C)(C)C(N)=O)C(C)C)C(C)C)ccc1OC.COCCCOc1cc(C[C@@H](C[C@H](N)[C@@H](O)C[C@H](C(=O)NCC(C)(C)C(N)=O)C(C)C)C(C)C)ccc1OC.O=C(O)/C=C/C(=O)O [ALISKIREN FUMARATE]
[17]
  half-life: 8.19 h
[18]
  Tmax: 2.8 h
[19]
  Tmax: 1 h
[20]
  AUC normalised: 3.41 ((ng/mL).hours)/(mg/kg/day)
[21]
  BUN_CHANGE_BY: 5%
[22]
  Tmax: 1 h
[23]
  Cmax: 9670 ng/mL
[24]
  Tmax: 1 h
[25]
  AUC at 24 h: 109 µg·h/mL
[26]
  Tmax: 1 h
[27]
  Cmax: 357 nM
[28]
  Tmax: 0 h
[29]
  AUC(0-t) at 24 h: 21.3 µg·h/mL
[30]
  AUC(0-24) normalised: 17.2 (nmol.h.L-1)/(mg/kg)
[31]
  Change in hematology: OUTCOME = Hematological parameter values did not differ from control values. No animals died during the study.
[32]
  Cmax: 270 nM
[33]
  AUC(0-inf): 103 µg·h/mL
[34]
  BUN_CHANGE_BY: 401%
hERG (KCNH2)
  inhibition at 1000 µM: 32%
[35]
  AUC normalised: 2.14 ((ug.h.ml-1)/(mg/kg)
